According to patent publication US11420922B2, “Hydroxylated tropolone inhibitors of nucleotidyl transferases in herpesvirus and Hepatitis B and uses therefor” (Saint Louis University, priority 2015, dated 2022):
pEC50: −log10 of the molar value.

Key:
[1] = test system: TK-deficient mutant of HSV-2 strain 333, ΔTK-; assay: Replication of acyclovir-resistant TK-deficient HSV-2 mutant in Vero cells; type: cell-based, herpes simplex virus 2; details: 5 μM, 24 hr, FIG. 4
Experimental: FIGS. 4A & 4B. Sensitivity of thymidine kinase-deficient HSV-2 to αHT compounds. […] Duplicate cultures were collected 24 hours post-infection and infectious virus titers were determined by plaque assay. Titers in compound-treated samples were subtracted from DMSO-treated samples. Values are the averages±one standard error of the mean. α-Hydroxytropolones inhibit an ACV-resistant mutant of HSV-2. […] Log10 suppression was determined relative to the diluent control. Data are the averages of data from duplicate samples±ranges from one of two independent experiments at each concentration.
Vero cells were maintained in Dulbecco's modified Eagle's medium (DMEM) containing 3% newborn calf serum, 3% bovine growth serum, 2 mM L-glutamine and 100 IU/mL penicillin and 0.1 mg/mL streptomycin (P/S). HSV-1 #6 and HSV-2 #1 are de-identified clinical isolates from the Saint Louis University Hospital. Stocks were prepared after a single passage in cell culture and were titered by standard plaque assay (Knipe and Spang, 1982). Wild-type HSV-2 used in FIG. 3 was laboratory strain 333. The TK-deficient mutant of HSV-2 strain 333, ΔTK-, contains a 180-bp KpnI-KpnI deletion in the UL23 open reading frame that abrogates TK activity (McDermott, et al, 1984). ΔTK- was the generous gift of Jim Smiley. Virus stocks were grown and titered on Vero cells (Morrison and Knipe, 1996).
HSV TK-deficient mutants are therefore insensitive to ACV. […] Vero cells were infected with a laboratory strain of HSV-2 and an engineered TK-deficient mutant of the same strain.

[2] = test system: HBV; assay: HBV replication assay in HepDES19 cells; type: cell-based; details: Hepatitis B virus; HepDES19 cells; read-out: EC50 (HBV assay)
Outline: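 HepDES19 cells induced by tetracycline withdrawal, then compound applied 48 h later in duplicate (1% DMSO final) and refreshed daily for two more days. After micrococcal nuclease digestion, capsid-associated HBV DNA purified and plus- and minus-strand DNA quantified by TaqMan PCR.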

Cc1cc(O)c(=O)c(O)cc1C(=O)c1ccc(-c2ccccc2)cc1 [Compound 118] was tested, and the “inhibition of the TK-mutant strain, in words” value [1] was “efficiently inhibited” and the pEC50 [2] was 5.22.
